Source: patent publication US20040127492A1 (Pharmacia Corporation, priority 2002, published 2004)
Like-named read-outs stand apart in the source and are kept apart here.

Legend:
MAPKAPK2 (MK-2) = MAPKAPK2 (MK-2) (Homo sapiens, UniProt P49137); test: Determination of MK-2 IC50 (HSP-peptide phosphorylation, anion exchange resin capture assay); format: biochemical
In short: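 Radiometric peptide assay: 15 nM p38α-activated MK-2, HSP-peptide, 0.03 mM ATP with [γ33P]ATP, 2% DMSO, pH 7.5, 30° C for 30 min; unreacted ATP removed on AG 1×8 resin before counting. Six concentrations in ten-fold steps, each in triplicate, gave IC50 in μM.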

MK-3 = MK-3 (Homo sapiens, UniProt Q16644); test: MK-3 inhibition IC50 (similar method to MK-2, with appropriate modifications); format: biochemical; settings: read-out: MK-3 Avg. IC50
endotoxin-induced shock = settings: murine model of endotoxin-induced shock; cited from earlier work
adjuvant arthritis = settings: rat adjuvant arthritis; cited from earlier work
[1] = system: collagen-induced arthritis; settings: mouse collagen-induced arthritis; cited from earlier work
granulomas = settings: laboratory rats; cited from earlier work
[2] = Table 1, phenoxypyrazole MK-2 inhibitors, read-out: MK-2 Avg, IC50
[3] = Table 1, phenoxypyrazole MK-2 inhibitors

MAPKAPK2 (MK-2), sequence (P49137 whole entry, species assumed): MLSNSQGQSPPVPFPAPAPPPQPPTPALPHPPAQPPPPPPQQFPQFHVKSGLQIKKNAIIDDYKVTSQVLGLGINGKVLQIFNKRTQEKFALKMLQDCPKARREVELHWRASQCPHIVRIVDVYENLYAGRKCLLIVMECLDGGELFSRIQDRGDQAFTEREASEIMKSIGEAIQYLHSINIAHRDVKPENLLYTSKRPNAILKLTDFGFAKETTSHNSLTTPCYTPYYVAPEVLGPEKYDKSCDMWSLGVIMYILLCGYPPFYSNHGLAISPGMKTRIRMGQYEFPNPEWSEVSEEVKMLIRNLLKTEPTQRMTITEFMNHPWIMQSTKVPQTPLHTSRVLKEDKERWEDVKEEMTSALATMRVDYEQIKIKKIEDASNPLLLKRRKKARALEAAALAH
MK-3, sequence (Q16644 whole entry, species assumed): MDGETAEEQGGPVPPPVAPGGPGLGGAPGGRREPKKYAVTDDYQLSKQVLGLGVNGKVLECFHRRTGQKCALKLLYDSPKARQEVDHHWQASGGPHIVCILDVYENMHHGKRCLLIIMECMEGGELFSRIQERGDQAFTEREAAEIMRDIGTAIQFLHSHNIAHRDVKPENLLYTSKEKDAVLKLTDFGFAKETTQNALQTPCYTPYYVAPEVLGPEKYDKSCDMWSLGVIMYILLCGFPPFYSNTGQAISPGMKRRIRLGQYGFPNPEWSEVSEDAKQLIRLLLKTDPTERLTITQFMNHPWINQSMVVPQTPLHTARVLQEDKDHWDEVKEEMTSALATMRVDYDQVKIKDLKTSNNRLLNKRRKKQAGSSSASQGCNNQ

Structure (SMILES)	IC50 (MAPKAPK2 (MK-2); [2])	IC50 (MK-3; [3])	further results
COc1ccc2c(c1)CCc1c(C(=O)NCCCN(C)C)nn(-c3ccc(Cl)cc3)c1-2 [Example 161]	> 200 µM	> 200 µM	
COc1ccc2c(c1)CCc1c(C(=O)O)nn(-c3ccc(S(N)(=O)=O)cc3)c1-2 [Example 166]	> 200 µM	> 200 µM	
COc1cc2c(cc1OC)-c1n[nH]c(C(=O)NN)c1CC2 [Example 170]	> 200 µM	> 200 µM	
O=C1NCCn2nc3c(c21)CCc1cnc(-c2cccc4cccnc24)cc1-3 [Example 171]			IC50 (MAPKAPK2 (MK-2); read-out: MK-2 Avg. IC50): 14 µM; IC50 (MK-3): 74.8 µM
COc1cc2c(cc1OC)-c1n[nH]c(C(=O)O)c1CC2 [Example 173]	> 200 µM	> 200 µM	
CCOC(=O)c1nn(-c2ccc(S(N)(=O)=O)cc2)c2c1CCc1cc(OC)c(OC)cc1-2 [Example 174]	> 200 µM	> 200 µM	
CCOC(=O)c1nn(-c2ccc(S(N)(=O)=O)cc2)c2c1CCc1cc(O)ccc1-2 [Example 176]	> 200 µM	> 200 µM	
COc1cc2c(cc1OC)-c1n[nH]c(C(=O)NNc3ccc(S(N)(=O)=O)cc3)c1CC2 [Example 177]	> 200 µM	> 200 µM	
CCOC(=O)c1nn(-c2ccc(S(N)(=O)=O)cc2)c2c1CCc1cc(OC)ccc1-2 [Example 178]	> 200 µM	> 200 µM	
O=C1NCC(CCCNCCc2ccc(Cl)cc2)n2nc3c(c21)CCc1cnccc1-3 (stereo not drawn) [Example 178]			IC50 (MAPKAPK2 (MK-2); read-out: MK-2 Avg. IC50): 16.1 µM; IC50 (MK-3): 40.4 µM
COC(=O)c1[nH]nc2c1CCc1cc(OC)ccc1-2 [Example 182]	> 200 µM	> 200 µM	
COC(=O)c1[nH]nc2c1CCc1cc(OC)c(Br)cc1-2 [Example 183]	> 200 µM	> 200 µM	
COC(=O)c1c2c(nn1CCCNC(=O)OC(C)(C)C)-c1cc(Br)c(OC)cc1CC2 [Example 184]	> 200 µM	> 200 µM	
COC(=O)c1c2c(nn1CCCNC(=O)OC(C)(C)C)-c1ccc(OC)cc1CC2 [Example 186]	> 200 µM	> 200 µM	
O=C1NCCn2nc3c(c21)CCc1cnc(N2CCSCC2)cc1-3 [Example 203]			IC50 (MAPKAPK2 (MK-2); read-out: MK-2 Avg. IC50): 35.6 µM; IC50 (MK-3): 3.3 µM
N#CC(N)CCn1nc2c(c1C(=O)O)CCc1cnccc1-2 (stereo not drawn) [Example 207]			IC50 (MAPKAPK2 (MK-2); read-out: MK-2 Avg. IC50): 36.9 µM; IC50 (MK-3): 186 µM
CN1CCN(c2cc3c(cn2)CCc2c-3nn3c2C(=O)NCC3)CC1 [Example 245]			IC50 (MAPKAPK2 (MK-2); read-out: MK-2 Avg. IC50): 96.8 µM; IC50 (MK-3): 108 µM
C[S+]([O-])c1ccc(-c2nc(-c3ccncc3)c(-c3ccc(F)cc3)[nH]2)cc1 (stereo not drawn) [SB203580]			mortality (endotoxin-induced shock): reduce mortality; development of arthritis (adjuvant arthritis): inhibit the development; development of arthritis [1]: inhibit the development
Nc1nccc(-c2c(-c3ccc(F)cc3)ncn2C2CCNCC2)n1 [SB 220025]			vascular density of granulomas (granulomas): significant dose-dependent decrease

The next lines start with results.

IC50 (MAPKAPK2 (MK-2); [2])	IC50 (MK-3; [3])	Structure (SMILES)	further results
> 200 µM	> 200 µM	COc1ccc(-n2nc(C(=O)O)c3c2-c2ccc(OC)cc2CC3)cc1 [Example 162]	
> 200 µM	> 200 µM	COC(=O)c1nn(-c2ccc(OC)cc2)c2c1CCc1cc(OC)ccc1-2 [Example 163]	
> 200 µM	> 200 µM	COC(=O)c1nn(-c2ccc(S(C)(=O)=O)cc2)c2c1CCc1cc(OC)ccc1-2 [Example 164]	
> 200 µM	> 200 µM	COc1ccc2c(c1)CCc1c(C(=O)O)nn(-c3ccc(S(C)(=O)=O)cc3)c1-2 [Example 165]	
> 200 µM	> 200 µM	CCOC(=O)c1[nH]nc2c1CCc1cc(OC)c(OC)cc1-2 [Example 167]	
> 200 µM	> 200 µM	CCOC(=O)c1nn(-c2ccccc2)c2c1CCc1cc(OC)c(OC)cc1-2 [Example 168]	
> 200 µM	> 200 µM	COc1cc2c(cc1OC)-c1n[nH]c(C(=O)n3ccnc3)c1CC2 [Example 169]	
> 200 µM	> 200 µM	CCN(CC)CCNC(=O)c1nn(-c2ccc(Cl)cc2)c2c1CCc1cc(OC)ccc1-2 [Example 171]	
> 200 µM	> 200 µM	COC(=O)c1nn(-c2ccc(S(N)(=O)=O)cc2)c2c1CCc1cc(OC)ccc1-2 [Example 172]	
> 200 µM	> 200 µM	COc1cc2c(cc1OC)-c1c(c(C(N)=O)nn1-c1ccc(S(N)(=O)=O)cc1)CC2 [Example 175]	
> 200 µM	> 200 µM	COc1ccc2c(c1)CCc1c(C(N)=O)nn(-c3ccc(S(N)(=O)=O)cc3)c1-2 [Example 179]	
> 200 µM	> 200 µM	COc1ccc2c(c1)CCc1c-2n[nH]c1C(=O)NN [Example 180]	
> 200 µM	> 200 µM	COC(=O)c1[nH]nc2c1CCc1cc(O)ccc1-2 [Example 181]	
> 200 µM	> 200 µM	COC(=O)c1c2c(nn1CCNC(=O)OC(C)(C)C)-c1cc(Br)c(OC)cc1CC2 [Example 185]	
